Where a SMILES comes first, the peptide text is derived from it. The star is where a group is joined. Myristoyl = CCCCCCCCCCCCCC(=O)*
Assays:
MCF7 cells = conditions: MCF7 cells, 50 μM peptide, 48 hours
Method: (§1) P1 Analogues were synthesized in accordance with the procedure of Example 5. 4×10^4 MDA-MB-231 cells or 1×10^4 induced or non-induced MCF7 cells were seeded in a 12 well plate with 1 mL complete media overnight. Induced MCF7 cells were prepared by stimulating cells with PMA/TGF-β and incubating for 12 hours. Cells were treated with 50 μM test peptide (dissolved in water) for 48 hours. Cells were then washed twice with 1 mL PBS and harvested by trypsinisation. Non-adherent cells were removed during the washing steps. Adherent cells were collected, and were subsequently stained with anti-human CD44, CD24 and Hoechst 33342 antibodies on ice for 30 mins. FACS was performed on BD FACS LSRII to measure the percentage of CD44^hiCD24^lo CSCs by dividing CD44^hiCD24^lo events by total live cell counts (Hoechst negative population) (as described in Fillmore and Kuperwasser (2007) Breast Cancer Res, 9: 303). The percentage of viable cells was calculated by dividing total live cell events by total single cells as described previously (Siemann and Keng (1986), Cancer Res, 46: 3556-3559).

induced MCF7 cells = assay: FACS CSC inhibition in induced MCF7 cells; type: cell-based, human; conditions: induced MCF7 cells (PMA/TGF-β), 50 μM peptide, 48 hours
Method: as §1

[1] = system: CD44^hiCD24^lo CSCs in MCF7 cells; assay: FACS analysis of CD44^hiCD24^lo CSCs in MCF7 cells; type: cell-based, human; conditions: 50 μM peptide, 48 hours
Method: as §1

MDA-MB-231 cells = type: cell-based, human; conditions: for COI (Cell Count) / COI, Live Single Cells (Cell Count) / COI, Single (Cell Count) / Total Cell Count: 50 μM peptide, 48 hours, n = 1
Description: (§2) Non-adherent cells were removed during the washing steps.

[2] = system: CD44^hiCD24^lo CSCs in MDA-MB-231 cells; assay: FACS analysis of CD44^hiCD24^lo cancer stem cells in MDA-MB-231 cells treated with P1 analogues; type: cell-based, human; conditions: for Inhibition of CSCs (%) Repeat 1 / Inhibition of CSCs (%) Repeat 2 / Inhibition of CSCs (%) Repeat 3 / CD44^hiCD24^lo CSCs (%) / COI, Live Single CD44^hiCD24^lo CSCs (Cell Count) / Average Inhibition of CSCs (%) / CD44^hiCD24^lo CSCs (%) Repeat 1 / CD44^hiCD24^lo CSCs (%) Repeat 2 / CD44^hiCD24^lo CSCs (%) Repeat 3: 50 μM peptide, 48 hours; for CD44^hiCD24^lo CSCs (%) / COI, Live Single CD44^hiCD24^lo CSCs (Cell Count): n = 1; for Average Inhibition of CSCs (%) / CD44^hiCD24^lo CSCs (%) Repeat 1 / CD44^hiCD24^lo CSCs (%) Repeat 2 / CD44^hiCD24^lo CSCs (%) Repeat 3: n = 3
Method: Analogues of P1 (Table 6) were designed and synthesized in accordance with the procedure of Example 5. The ability of these analogues to inhibit cancer stem cells was determined using FACS analysis on MDA-MB-231 cells, which constitutively contain approximately 90% CD44^hiCD24^lo cancer stem cells, treated with the peptides.
as §2
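Wherever COI, Live Single Cells (Cell Count) is given: live means Hoechst-negative events among single cells.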

CCCCCCCCCCCCCC(=O)N[C@H](C(=O)N[C@@H](Cc1ccccc1)C(=O)N[C@H](C(=O)N[C@@H](Cc1ccccc1)C(=O)N[C@@H](CCCNC(=N)N)C(=O)N[C@@H](CC(C)C)C(=O)N[C@@H](CCCNC(=N)N)C(=O)N[C@@H](C)C(=O)NCC(=O)N[C@@H](CCCNC(=N)N)C(=O)N[C@@H](CCSC)C(=O)N[C@@H](CCSC)C(=O)N[C@@H](CC(=O)O)C(=O)N[C@H](C(=O)N[C@@H](CCCCN)C(=O)N[C@@H](CCCCN)C(N)=O)C(C)C)[C@@H](C)CC)[C@@H](C)O [Peptide 2815309, Myristoyl-TFIFRLRAGRMMDVKK-NH2] (Myristoyl-TFIFRLRAGRMMDVKK-NH2)
COI Count (MCF7 cells): 5425
COI/Single Cell Count (MCF7 cells): 4124
COI/Single Cells/Live Count (MCF7 cells): 4000
Total Count (MCF7 cells): 10000
CSC inhibition (%) (induced MCF7 cells): 52.46%
CD44^hiCD24^lo CSC % [1]: 3.35%
COI/Single Cells/Live/CD44^hiCD24^lo CSCs Count [1]: 134
COI (Cell Count) (MDA-MB-231 cells): 74
COI, Live Single Cells (Cell Count) (MDA-MB-231 cells): 1
COI, Single (Cell Count) (MDA-MB-231 cells): 71
Total Cell Count (MDA-MB-231 cells): 4158
killing of total MDA-MB-231 cells (MDA-MB-231 cells; not only the CSCs): killed the majority of the total MDA-MB-231 cells
Inhibition of CSCs (%) Repeat 1 [2]: 100.00%
Inhibition of CSCs (%) Repeat 2 [2]: 100.00%
Inhibition of CSCs (%) Repeat 3 [2]: 100.00%
CD44^hiCD24^lo CSCs (%) [2]: 0.00%
COI, Live Single CD44^hiCD24^lo CSCs (Cell Count) [2]: 1
Average Inhibition of CSCs (%) [2]: 100.00%
CD44^hiCD24^lo CSCs (%) Repeat 1 [2]: 0.00%
CD44^hiCD24^lo CSCs (%) Repeat 2 [2]: 0.00%
CD44^hiCD24^lo CSCs (%) Repeat 3 [2]: 0.00%
ability to inhibit cancer stem cells (CD44^hiCD24^lo CSCs) ([2]; in words): retained the ability to inhibit cancer stem cells

CCCCCCCCCCCCCC(=O)N[C@@H](CC(C)C)C(=O)N[C@H](C(=O)N[C@@H](CCC(=O)O)C(=O)N[C@H](C(=O)N[C@@H](Cc1ccccc1)C(=O)N[C@@H](CCCNC(=N)N)C(=O)N[C@@H](CC(C)C)C(=O)N[C@@H](CCCNC(=N)N)C(=O)N[C@@H](CCCCN)C(=O)NCC(=O)N[C@@H](CCCNC(=N)N)C(=O)N[C@@H](CCSC)C(=O)N[C@@H](CCSC)C(=O)N[C@@H](CC(=O)O)C(=O)N[C@H](C(=O)N[C@@H](CCCCN)C(=O)N[C@@H](CCCCN)C(N)=O)C(C)C)[C@@H](C)CC)[C@@H](C)O [Peptide 2853807, Myristoyl-LTEIFRLRKGRMMDVKK-NH2] (Myristoyl-LTEIFRLRKGRMMDVKK-NH2)
COI (Cell Count) (MDA-MB-231 cells): 690
COI, Live Single Cells (Cell Count) (MDA-MB-231 cells): 168
COI, Single (Cell Count) (MDA-MB-231 cells): 439
Total Cell Count (MDA-MB-231 cells): 3558
Inhibition of CSCs (%) Repeat 1 [2]: 84.07%
Inhibition of CSCs (%) Repeat 2 [2]: 81.60%
Inhibition of CSCs (%) Repeat 3 [2]: 86.81%
CD44^hiCD24^lo CSCs (%) [2]: 11.31%
COI, Live Single CD44^hiCD24^lo CSCs (Cell Count) [2]: 19
Average Inhibition of CSCs (%) [2]: 84.16%
CD44^hiCD24^lo CSCs (%) Repeat 1 [2]: 14.28%
CD44^hiCD24^lo CSCs (%) Repeat 2 [2]: 16.51%
CD44^hiCD24^lo CSCs (%) Repeat 3 [2]: 11.84%

CCCCCCCCCCCCCC(=O)N[C@@H](CC(C)C)C(=O)N[C@H](C(=O)N[C@@H](Cc1ccccc1)C(=O)N[C@H](C(=O)N[C@@H](Cc1ccccc1)C(=O)N[C@@H](CCCNC(=N)N)C(=O)N[C@@H](CC(C)C)C(=O)N[C@@H](CCCNC(=N)N)C(=O)N[C@@H](CCCCN)C(=O)NCC(=O)N[C@@H](CCCNC(=N)N)C(=O)N[C@@H](CCCCN)C(=O)N[C@@H](CCSC)C(=O)N[C@@H](CC(=O)O)C(=O)N[C@H](C(=O)N[C@@H](CCCCN)C(=O)N[C@@H](CCCCN)C(N)=O)C(C)C)[C@@H](C)CC)[C@@H](C)O [Peptide 2853833, Myristoyl-LTFIFRLRKGRKMDVKK-NH2] (Myristoyl-LTFIFRLRKGRKMDVKK-NH2)
COI (Cell Count) (MDA-MB-231 cells): 495
COI, Live Single Cells (Cell Count) (MDA-MB-231 cells): 72
COI, Single (Cell Count) (MDA-MB-231 cells): 363
Total Cell Count (MDA-MB-231 cells): 4559
Inhibition of CSCs (%) Repeat 1 [2]: 70.25%
Inhibition of CSCs (%) Repeat 2 [2]: 75.23%
Inhibition of CSCs (%) Repeat 3 [2]: 85.46%
CD44^hiCD24^lo CSCs (%) [2]: 12.50%
COI, Live Single CD44^hiCD24^lo CSCs (Cell Count) [2]: 9
Average Inhibition of CSCs (%) [2]: 76.98%
CD44^hiCD24^lo CSCs (%) Repeat 1 [2]: 26.67%
CD44^hiCD24^lo CSCs (%) Repeat 2 [2]: 22.22%
CD44^hiCD24^lo CSCs (%) Repeat 3 [2]: 13.04%
